Here are results for 2 compounds from PMC3723632, “A Multi-targeted Drug Candidate with Dual Anti-HIV and Anti-HSV Activity” (PLoS Pathogens, 2013).

Each structure is given as a SMILES string. ≈ marks a conversion by molar mass, not a printed value. Read-outs that look alike come from different tables or passages of the source.

Experiment [1] has as its system HSV-2 (G). In words: HSV-2 replication in human ex vivo tonsillar (lymphoid) tissue, viral DNA. The experiment is classed as cell-based. The conditions noted are these: for HSV-2 DNA copies: human lymphoid tissue ex vivo; for EC99 (viral load reduced by 2 orders of magnitude): tonsilar tissue, RT-PCR assay. The source says: Figure 5 Suppression of HSV-2 in infected human ex vivo tonsillar tissue by adefovir and PMEO-DAPym. Blocks of human tonsillar tissue were inoculated ex vivo with HSV-2 (G) and treated or not with adefovir or PMEO-DAPym. We monitored HSV-2 (G) replication by measuring viral DNA in culture media at different times throughout the culture period. Presented are means ± SEM of cumulative HSV-2 (G) replication in tissues from two to six donors. For each donor, data represent pooled viral release from 27 tissue blocks.
Figure 7 Suppression of HSV-2 in single-infected and HIV-1 co-infected human ex vivo tonsillar tissue by adefovir and PMEO-DAPym. Panels A and B: Blocks of human tonsillar tissue from five different donors were co-inoculated ex vivo with HSV-2 (G) and HIV-1 (LAI) and treated or not with adefovir or PMEO-DAPym (1 µg/ml). For tissue from each donor, we monitored replication of both viruses by evaluating their accumulation in the culture media bathing 27 tissue blocks at different times throughout the culture. We evaluated HIV-1 replication by measuring p24gag and HSV-2 (G) replication by measuring HSV-2 viral DNA. Panel A: Presented are kinetics of HSV-2 (G) and HIV-1 (LAI) replication (insert). Each point represents the mean ± SEM of viral replication in tissues from five donors. Panel B: Presented are means ± SEM of cumulative HSV-2 (G) and HIV-1 (LAI) replication (insert).
Human tonsillar tissues were obtained from patients undergoing routine tonsillectomy at the Children's National Medical Center (Washington, DC) under IRB-approved protocol. Cervical tissues were obtained through the National Disease Research Interchange (NDRI, Philadelphia, PA). Tissues were dissected into blocks of about 2×2×2 mm and placed onto collagen sponge gels in culture medium at the air-liquid interface as described earlier. For tonsillar tissue for each experimental condition, 27 tissue blocks (9 blocks/well filled with 3 ml of medium) were inoculated with HSV-1 (strain F) or HSV-2 (strains G and MS). In coinfection experiments, tissue blocks were sequentially infected with HSV-2 (G) and HIV-1 (IIIB) (obtained from the Rush University Virology Quality Assurance Laboratory, Chicago, IL). Drugs (adefovir and PMEO-DAPym) were added to the culture medium 12 h prior to viral infection and replenished at each culture medium change.
(§1) For cervico-vaginal tissue, 16 blocks were infected by immersion in HSV-2G-containing medium and maintained on the gelfoam rafts. Adefovir was added at the time of infection and replenished at each culture medium change. HSV replication was evaluated from the release of viral DNA into the culture medium as measured with quantitative real-time PCR [18]. We evaluated HIV-1 replication from the release of p24 capsid antigen using a bead-based assay.

In experiment [2] the test system is HSV-2 (G). Nature of the experiment: HSV-2 replication in human cervico-vaginal explants. The conditions noted are these: 1 µg/ml. It counts as cell-based. As to the method:
Figure 6 Suppression of HSV-2 in human cervico-vaginal tissues by adefovir and PMEO-DAPym. Blocks of human cervico-vaginal tissues were inoculated ex vivo with HSV-2 (G) or co-infected with HIV-1 and HSV-2 and treated or not with adefovir (1 µg/ml) or PMEO-DAPym (1 µg/ml). We monitored HSV-2 (G) replication by measuring viral DNA accumulated in culture media at different times throughout the culture period. Presented is cumulative HSV-2 (G) replication, with data representing pooled viral release from 16 tissue blocks.
as §1

In a further experiment the test system is HSV-1 or HSV-2. Nature of the experiment: Topical treatment of athymic nude mice inoculated with HSV-1 or HSV-2. It counts as in vivo. To be noted: topical gel twice daily for 5 days, p<0.05. As to the method:
Figure 8 Effects of adefovir and PMEO-DAPym on mortality in mice inoculated with HSV-1 or HSV-2. Groups of five nu/nu mice were inoculated with HSV-1 (panel A) or HSV-2 (panel B) on the lumbosacral area. Each cohort was then subjected to topical treatment twice daily for 5 consecutive days, starting on the day of viral infection. The placebo groups received a similar treatment with the test formulation without drug. Mortality was recorded over a period of 30 days. Animals were euthanized when more than 30% loss in body weight or development of paralysis occurred. We estimated survival rates according to the Kaplan-Meier method and compared them using the log-rank test (Mantel-Cox using GraphPad Prism).
Female adult NMRI athymic nude mice or hairless mice (weighing ∼20 g and approximately 4 weeks old) were scarified on the lumbosacral area over a surface of about 1 cm^2 with 5×10^3 PFU of HSV-1 (KOS) or 5×10^2 PFU of HSV-2 (G).
Formulations of adefovir and PMEO-DAPym (0.3% and 1%) in a gel (identical to that used in the CAPRISA 004 trial) were applied topically twice a day for a period of 5 days starting 1–2 h post infection. In each experiment, a group of animals was treated with a placebo formulation that contained exactly the same vehicle but without drug. […] Development of lesions and mortality were recorded over a 1-month period. […]

In another experiment the test system is HSV-2 (G strain). In words: Pre-treatment of PHK cell cultures, HSV-2 infection (CPE).
Setting [3] is: Human alphaherpesvirus 2, read-out: 50% effective concentration, PHK, HSV-2 G, +2 h to 72 h (control, drug present whole incubation).
The mark [4] stands for this setting: Human alphaherpesvirus 2, read-out: 50% effective concentration, PHK, HSV-2 G, pretreatment −2.5 h to 0 h.
Setting [5] is: Human alphaherpesvirus 2, read-out: 50% effective concentration, PHK, HSV-2 G, pretreatment −6 h to 0 h.
Where [6] appears, read: Human alphaherpesvirus 2, read-out: 50% effective concentration, PHK, HSV-2 G, pretreatment −18 h to 0 h.

Procedure for HSV-2 (G strain): The HSV-induced cytopathic effect (CPE) was evaluated in HSV-infected HEL and PHK cultures as described [44], [48].

Regarding `Nc1cc(OCCOCP(=O)(O)O)nc(N)n1` [PMEO-DAPym, 6-phosphonylmethoxyethoxy-2,4-diaminopyrimidine], the inhibition (as a rule, the drop in the measured response relative to a control, in per cent) at 0.3 µg/mL in the experiment on HSV-2 (G) [1] (Human alphaherpesvirus 2, human lymphoid tissue ex vivo, 0.3 µg/mL, read-out: Inhibition of viral replication (% to control)) was 52.8%. The inhibition at 3 µg/mL with HSV-2 (G) [1] (Human alphaherpesvirus 2, human lymphoid tissue ex vivo, 3 µg/mL, read-out: Inhibition of viral replication (% to control)) was over 99%. Further, the entries for the “HSV-2 DNA copies” value in the experiment with HSV-2 (G) [1] (0.3 µg/mL) and in the experiment with HSV-2 (G) [1] (3 µg/mL) were 5.76 e+7 copies and 8.08 e+5 copies, respectively. In the experiment on HSV-2 (G) [1], the “EC99 (viral load reduced by 2 orders of magnitude)” value was found to be 2 µg/mL. Moreover, the “inhibition of HSV-2 infection” value with HSV-2 (G) [2] is reported as “markedly inhibited”. For the same compound, the “virus-related morbidity and survival” value with HSV-1 or HSV-2 was “significantly delayed virus-related morbidity and prolonged the survival of the mice”. In addition, the EC50 came to 3.5 ± 1.1 µg/mL (≈ 13.2 µM) in the experiment on HSV-2 (G strain) (setting [3]), 31.6 µg/mL (≈ 120 µM) in the experiment with HSV-2 (G strain) (setting [4]), 12.6 µg/mL (≈ 47.7 µM) in the experiment on HSV-2 (G strain) (setting [5]) and 8.7 ± 1.8 µg/mL (≈ 32.9 µM) in the experiment on HSV-2 (G strain) (setting [6]).
For the compound `Nc1ncnc2c1ncn2CCOCP(=O)(O)O` [Adefovir, 9-(2-phosphonylmethoxyethyl)adenine], the “EC99 (viral load reduced by 2 orders of magnitude)” value in the experiment on HSV-2 (G) [1] stood at 5 µg/mL. Further, the “inhibition of HSV-2 infection” value in the experiment with HSV-2 (G) [2] is reported as “markedly inhibited”. The “virus-related morbidity and survival” value with HSV-1 or HSV-2 is “significantly delayed virus-related morbidity and prolonged the survival of the mice”. Further, the EC50 came to 9.2 ± 6 µg/mL (≈ 33.7 µM) in the experiment with HSV-2 (G strain) (setting [3]), 20 µg/mL (≈ 73.2 µM) with HSV-2 (G strain) (setting [4]), 11.9 µg/mL (≈ 43.6 µM) in the experiment with HSV-2 (G strain) (setting [5]) and 13.3 ± 2.6 µg/mL (≈ 48.7 µM) in the experiment with HSV-2 (G strain) (setting [6]).
